This note sets out measurements from patent publication US10065970B2 (Genentech, Inc., priority 2015, dated 2018).

In this experiment the target is PI3Kα (alpha) (Homo sapiens (Human), UniProt P42336). Put plainly: p110α (alpha) PI3K Binding Assay (ADP-Glo lipid kinase reaction). It is filed as biochemical. As to conditions: read-out: PI3Kα-(alpha) ATP (Ki) micromolar. The method, boiled down:
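Enzyme with PIP2:3PS lipid substrate and ATP/MgCl2 in 50 mM HEPES, 50 mM NaCl, 3 mM MgCl2, 0.01% BSA, 1% DMSO, 120 min at room temperature. ADP formed detected by ADP-Glo luminescence. Ki from 10-point dose-response curves via the Morrison equation.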

The mark [1] stands for this setting: PI3K alpha 0.2 nM, ATP 40 μM, PIP2:3PS 50 μM, 120 min, room temperature, Ki by Morrison Equation.

Like-named read-outs stand apart in the source and are kept apart here. Some results are limits rather than exact numbers.

Sequence of PI3Kα (alpha) (P42336 whole entry): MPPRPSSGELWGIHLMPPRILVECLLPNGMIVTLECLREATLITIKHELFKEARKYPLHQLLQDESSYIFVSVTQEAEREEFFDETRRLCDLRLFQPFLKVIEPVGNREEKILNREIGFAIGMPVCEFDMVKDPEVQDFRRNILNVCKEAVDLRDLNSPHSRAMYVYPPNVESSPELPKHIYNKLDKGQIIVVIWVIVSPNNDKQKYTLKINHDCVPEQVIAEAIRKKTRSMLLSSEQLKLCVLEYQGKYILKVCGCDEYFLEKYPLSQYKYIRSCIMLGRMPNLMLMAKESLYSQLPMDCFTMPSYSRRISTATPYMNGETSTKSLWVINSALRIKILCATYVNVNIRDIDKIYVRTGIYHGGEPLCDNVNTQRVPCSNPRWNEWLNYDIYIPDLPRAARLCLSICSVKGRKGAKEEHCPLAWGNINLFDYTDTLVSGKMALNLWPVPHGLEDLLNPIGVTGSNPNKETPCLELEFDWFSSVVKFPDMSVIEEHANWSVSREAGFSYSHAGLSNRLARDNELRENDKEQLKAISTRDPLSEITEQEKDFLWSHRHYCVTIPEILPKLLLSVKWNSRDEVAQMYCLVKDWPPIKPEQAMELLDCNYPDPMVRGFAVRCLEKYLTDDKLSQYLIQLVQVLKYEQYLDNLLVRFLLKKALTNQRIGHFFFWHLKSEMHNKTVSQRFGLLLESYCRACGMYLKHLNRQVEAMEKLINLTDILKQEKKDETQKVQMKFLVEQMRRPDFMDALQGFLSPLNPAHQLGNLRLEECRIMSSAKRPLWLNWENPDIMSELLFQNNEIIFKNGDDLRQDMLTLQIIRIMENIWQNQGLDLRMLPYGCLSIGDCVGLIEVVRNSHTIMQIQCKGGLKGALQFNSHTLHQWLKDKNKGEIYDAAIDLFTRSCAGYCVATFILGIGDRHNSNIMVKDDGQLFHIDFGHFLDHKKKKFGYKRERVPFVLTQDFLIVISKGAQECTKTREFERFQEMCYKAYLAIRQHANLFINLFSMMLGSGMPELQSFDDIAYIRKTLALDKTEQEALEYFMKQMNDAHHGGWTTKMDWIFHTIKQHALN
Sequence of PI3Kα (alpha) (P27986 whole entry partner): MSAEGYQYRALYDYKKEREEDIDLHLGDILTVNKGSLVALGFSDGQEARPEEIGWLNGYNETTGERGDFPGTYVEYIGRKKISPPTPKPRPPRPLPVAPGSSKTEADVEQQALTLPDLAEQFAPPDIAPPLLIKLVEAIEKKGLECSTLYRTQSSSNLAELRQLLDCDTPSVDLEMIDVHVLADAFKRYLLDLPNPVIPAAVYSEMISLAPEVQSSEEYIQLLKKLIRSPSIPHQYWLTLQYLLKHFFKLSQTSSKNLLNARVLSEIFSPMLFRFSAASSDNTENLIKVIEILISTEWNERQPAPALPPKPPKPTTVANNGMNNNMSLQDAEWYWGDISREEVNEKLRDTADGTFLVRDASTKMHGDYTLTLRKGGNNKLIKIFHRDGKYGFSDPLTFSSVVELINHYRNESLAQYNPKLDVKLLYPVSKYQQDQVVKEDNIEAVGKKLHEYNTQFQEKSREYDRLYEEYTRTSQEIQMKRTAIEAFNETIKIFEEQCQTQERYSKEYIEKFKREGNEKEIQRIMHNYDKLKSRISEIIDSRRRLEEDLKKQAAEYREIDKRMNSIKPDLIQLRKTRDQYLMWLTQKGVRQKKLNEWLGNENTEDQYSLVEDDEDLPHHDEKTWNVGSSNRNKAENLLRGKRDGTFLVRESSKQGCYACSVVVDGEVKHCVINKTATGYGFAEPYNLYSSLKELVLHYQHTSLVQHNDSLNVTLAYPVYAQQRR

Consider `NC(=O)[C@@H]1CCCN1c1cc2c3c(c1)nc(-c1ccc(-c4ncsn4)cc1)n3CCCO2` [Example 227, (S)-1-(1-(4-(1,2,4-Thiadiazol-3-yl)phenyl)-8,9-dihydro-7H-6-oxa-2,9a-diazabenzo[cd]azulen-4-yl)pyrrolidine-2-carboxamide], for which, under setting [1], the inhibition constant (Ki) was determined as 8.21 nM.

In the case of `NC(=O)[C@@H](Nc1cc2c3c(c1)nc(-c1ccc(OC(F)F)cc1)n3CCCO2)C1CC1` [Example 150, (S)-2-Cyclopropyl-2-((1-(4-(difluoromethoxy)phenyl)-8,9-dihydro-7H-6-oxa-2,9a-diazabenzo[cd]azulen-4-yl)amino)acetamide], under setting [1], the Ki came to 490 nM.

Take `NC(=O)[C@@H](Nc1cc2c3c(c1)nc(-c1ccn4ncnc4c1)n3CCCO2)C1CC1` [Example 132, (S)-2-((1-([1,2,4]Triazolo[1,5-a]pyridin-7-yl)-8,9-dihydro-7H-6-oxa-2,9a-diazabenzo[cd]azulen-4-yl)amino)-2-cyclopropylacetamide]: the Ki under setting [1] turned out to be 1.6 nM.

`C[C@H](Oc1cc2c3c(c1)nc(-c1ccc4nc(N)sc4c1F)n3CCCCO2)C(N)=O` (single isomer, unassigned) [Example 286]: the inhibitory constant (Ki) under setting [1] worked out at 0.072 nM.

On to `C[C@@H](Oc1cc2c3c(c1)nc(-c1cc(F)c4oc(N)nc4c1)n3CCCO2)C(N)=O` [Example 263, (R)-2-((1-(2-Amino-7-fluorobenzo[d]oxazol-5-yl)-8,9-dihydro-7H-6-oxa-2,9a-diazabenzo[cd]azulen-4-yl)oxy)propanamide], for which the inhibition constant (Ki) under setting [1] came to 0.346 nM.

In the case of `COc1cnc2cc(-c3nc4cc(N[C@H](C(N)=O)C5CC5)cc5c4n3CCCO5)ccc2n1` [Example 173, (S)-2-Cyclopropyl-2-((1-(2-methoxyquinoxalin-6-yl)-8,9-dihydro-7H-6-oxa-2,9a-diazabenzo[cd]azulen-4-yl)amino)acetamide], the inhibition constant (Ki) under setting [1] came out at 46.5 nM.

`C[C@@H](C(N)=O)N(C)c1cc2c3c(c1)nc(-c1ccc4nc(N)sc4c1)n3CCCCO2` [Example 255, (S)-2-((1-(2-Aminobenzo[d]thiazol-6-yl)-7,8,9,10-tetrahydro-6-oxa-2,10a-diazacycloocta[cd]inden-4-yl)(methyl)amino)propanamide]: the Ki under setting [1] was 0.149 nM.

Take `NC(=O)[C@@H]1CCCN1c1cc2c3c(nc(-c4ccc5oc(N)nc5c4)n3CCCO2)c1F` [Example 194, (S)-1-(1-(2-Aminobenzo[d]oxazol-5-yl)-3-fluoro-8,9-dihydro-7H-6-oxa-2,9a-diazabenzo[cd]azulen-4-yl)pyrrolidine-2-carb oxamide]: under setting [1], the inhibition constant Ki stood at 0.026 nM.

In the case of `NC(=O)[C@@H](Nc1cc2c3c(c1)nc(-c1ccc4c(c1)NC(=O)CO4)n3CCCO2)C1CC1` [Example 131, (S)-2-Cyclopropyl-2-((1-(3-oxo-3,4-dihydro-2H-benzo[b][1,4]oxazin-6-yl)-8,9-dihydro-7H-6-oxa-2,9a-diazabenzo[cd]azulen-4-yl)amino)acetamide], under setting [1], the Ki was found to be 821 nM.

On to `C[C@@H](C(N)=O)N(C)c1cc2c3c(c1)nc(-c1cc(F)c4oc(N)nc4c1)n3CCCCO2` [Example 264, (S)-2-((1-(2-Amino-7-fluorobenzo[d]oxazol-5-yl)-7,8,9,10-tetrahydro-6-oxa-2,10a-diazacycloocta[cd]inden-4-yl)(methyl)amino)propanamide], for which the Ki under setting [1] is < 0.02 nM.

Consider `NC(=O)[C@@H](Nc1cc2c3c(c1)nc(N1CCOCC1)n3CCCO2)C1CC1` [Example 141, (S)-2-Cyclopropyl-2-((1-morpholino-8,9-dihydro-7H-6-oxa-2,9a-diazabenzo[cd]azulen-4-yl)amino)acetamide], for which the inhibition constant Ki under setting [1] was 740 nM.

Regarding `NC(=O)[C@H](Oc1cc2c3c(c1)nc(-c1cc(F)c4nc(N)sc4c1)n3CCCCO2)C1CC1` (single isomer, unassigned) [Example 279], the inhibition constant (Ki) under setting [1] was 1.02 nM.

On to `COC[C@@H](Oc1cc2c3c(c1)nc(-c1ccc4nc(N)sc4c1)n3CCCCO2)C(N)=O` (single isomer, unassigned) [Example 304], for which the Ki under setting [1] amounted to 0.127 nM.

As for `NC(=O)[C@@H](Nc1cc2c3c(c1)nc(N1CCCC(O)C1)n3CCCO2)C1CC1` (stereo partly drawn) [Example 182, (S)-2-Cyclopropyl-2-[1-(3-hydroxypiperidin-1-yl)-8,9-dihydro-7H-6-oxa-2,9a-diazabenzo[cd]azulen-4-ylamino]acetamide], the Ki under setting [1] worked out at 398 nM.

In the case of `C[C@H](Nc1cc2c3c(c1)nc(-c1ccccn1)n3CCCO2)C(N)=O` [Example 112, (S)-2-((1-(Pyridin-2-yl)-8,9-dihydro-7H-6-oxa-2,9a-diazabenzo[cd]azulen-4-yl)amino)propanamide], under setting [1], the Ki was determined as 160 nM.

Consider `NC(=O)[C@@H](Nc1cc2c3c(c1)nc(N1CCCCC1)n3CCCO2)C1CC1` [Example 127, (S)-2-Cyclopropyl-2-(1-piperidin-1-yl-8,9-dihydro-7H-6-oxa-2,9a-diazabenzo[cd]azulen-4-ylamino)acetamide], for which, under setting [1], the inhibitory constant (Ki) came out at 719 nM.

As to `C[C@H](Oc1cc2c3c(c1)nc(-c1ccc4oc(N)nc4c1F)n3CCCCO2)C(N)=O` [Example 241, (S)-2-((1-(2-Amino-4-fluorobenzo[d]oxazol-5-yl)-7,8,9,10-tetrahydro-6-oxa-2,10a-diazacycloocta[cd]inden-4-yl)oxy)propanamide], under setting [1], the Ki is < 0.02 nM.

For `NC(=O)[C@@H](Nc1cc2c3c(c1)nc(-c1ccc(-c4nc[nH]n4)cc1)n3CCCO2)C1CC1` [Example 190, (S)-2-((1-(4-(1H-1,2,4-Triazol-3-yl)phenyl)-8,9-dihydro-7H-6-oxa-2,9a-diazabenzo[cd]azulen-4-yl)amino)-2-cyclopropylacetamide], the Ki under setting [1] amounted to 0.15 nM.

With `NC(=O)[C@@H](Nc1cc2c3c(c1)nc(-c1ccc4c(c1)OCO4)n3CCCO2)C1CC1` [Example 114, (S)-2-((1-(Benzo[d][1,3]dioxol-5-yl)-8,9-dihydro-7H-6-oxa-2,9a-diazabenzo[cd]azulen-4-yl)amino)-2-cyclopropylacetamide], under setting [1], the inhibitory constant (Ki) is 23.3 nM.

Consider `NC(=O)[C@@H](Nc1cc2c3c(c1)nc(-c1ccn4ncnc4n1)n3CCCO2)C1CC1` [Example 156, (S)-2-((1-([1,2,4]triazolo[1,5-a]pyrimidin-5-yl)-8,9-dihydro-7H-6-oxa-2,9a-diazabenzo[cd]azulen-4-yl)amino)-2-cyclopropylacetamide], for which, under setting [1], the Ki worked out at 0.264 nM.

On to `NC(=O)[C@@H](Nc1cc2c3c(c1)nc(-c1ccc4nc(N)nn4c1)n3CCCO2)C1CC1` [Example 201, (S)-2-((1-(2-Amino-[1,2,4]triazolo[1,5-a]pyridin-6-yl)-8,9-dihydro-7H-6-oxa-2,9a-diazabenzo[cd]azulen-4-yl)amino)-2-cyclopropylacetamide], for which, under setting [1], the Ki amounted to 0.717 nM.

As for `C[C@H](Oc1cc2c3c(c1)nc(-c1ccc(-c4nc[nH]n4)cc1)n3CCCCO2)C(N)=O` [Example 243, (S)-2-((1-(4-(1H-1,2,4-Triazol-3-yl)phenyl)-7,8,9,10-tetrahydro-6-oxa-2,10a-diazacycloocta[cd]inden-4-yl)oxy)propanamide], the Ki under setting [1] is < 0.02 nM.

As to `COc1ncc(-c2nc3cc(N[C@H](C(N)=O)C4CC4)cc4c3n2CCCO4)cc1Cl` [Example 130, (S)-2-((1-(5-Chloro-6-methoxypyridin-3-yl)-8,9-dihydro-7H-6-oxa-2,9a-diazabenzo[cd]azulen-4-yl)amino)-2-cyclopropylacetamide], under setting [1], the inhibition constant (Ki) came to 7.67 nM.

In the case of `NC(=O)[C@@H]1CCCN1c1cc2c3c(c1)nc(-c1ccc(-c4cn[nH]c4)nc1)n3CCCO2` [Example 223, (S)-1-(1-(6-(1H-Pyrazol-4-yl)pyridin-3-yl)-8,9-dihydro-7H-6-oxa-2,9a-diazabenzo[cd]azulen-4-yl)pyrrolidine-2-carboxamide], the Ki under setting [1] worked out at 74.6 nM.

Turning to `C[C@H](Nc1cc2c3c(c1)nc(-c1ccccc1)n3CCCO2)C(N)=O` [Example 106, (S)-2-((1-phenyl-8,9-dihydro-7H-6-oxa-2,9a-diazabenzo[cd]azulen-4-yl)amino)propanamide], the inhibition constant Ki under setting [1] is 130 nM.

Consider `NC(=O)[C@@H](Nc1cc2c3c(c1)nc(-c1cnn(CCO)c1)n3CCCO2)C1CC1` [Example 211, (S)-2-Cyclopropyl-2-((1-(1-(2-hydroxyethyl)-1H-pyrazol-4-yl)-8,9-dihydro-7H-6-oxa-2,9a-diazabenzo[cd]azulen-4-yl)amino)acetamide], for which the Ki under setting [1] came out at 815 nM.

In the case of `C[C@H](Oc1cc2c3c(c1)nc(-c1ccc4nc(N)cnc4c1)n3CCCCO2)C(N)=O` [Example 244, (S)-2-((1-(2-Aminoquinoxalin-6-yl)-7,8,9,10-tetrahydro-6-oxa-2,10a-diazacycloocta[cd]inden-4-yl)oxy)propanamide], under setting [1], the Ki was < 0.02 nM.

Regarding `NC(=O)[C@@H](Nc1cc2c3c(c1)nc(-c1ccc4nc(N)ncc4c1)n3CCCO2)C1CC1` [Example 120], the Ki under setting [1] stood at 5.34 nM.

For the compound `NC(=O)[C@@H](Nc1cc2c3c(c1)nc(-c1ccnnc1)n3CCCO2)C1CC1` [Example 125, (S)-2-Cyclopropyl-2-((1-(pyridazin-4-yl)-8,9-dihydro-7H-6-oxa-2,9a-diazabenzo [cd]azulen-4-yl)amino)acetamide], under setting [1], the Ki was determined as 221 nM.

With `C[C@H]1CCN(c2cc3c4c(c2)nc(-c2ccc5oc(N)nc5c2)n4CCCO3)[C@@H]1C(N)=O` [Example 308, (2S,3S)-1-(1-(2-Aminobenzo[d]oxazol-5-yl)-8,9-dihydro-7H-6-oxa-2,9a-diazabenzo[cd]azulen-4-yl)-3-methylpyrrolidine-2-carboxamide], the inhibition constant Ki stood at 0.627 nM.

As for `C[C@H]1CCN(c2cc3c4c(c2)nc(-c2ccc5oc(N)nc5c2)n4CCCCO3)[C@@H]1C(N)=O` [Example 309, (2S,3S)-1-(1-(2-Aminobenzo[d]oxazol-5-yl)-7,8,9,10-tetrahydro-6-oxa-2,10a-diazacycloocta[cd]inden-4-yl)-3-methylpyrrolidine-2-carboxamide], the inhibition constant Ki under setting [1] is 0.04 nM.

The term Ki denotes a dissociation constant, usually derived from enzyme kinetics or from competition with a known ligand.
